Tests used:
[1] = system: liver cirrhosis induced by carbon tetrachloride (CCl4); test: Treatment of liver cirrhosis (CCl4) in rats by oral administration; assay type: in vivo; design: Relative liver mass: unit not given here
Procedure: Treatment of liver cirrhosis by oral administration of the inventive substance. Liver cirrhosis was induced in rats by means of intragastric administration of 50% solution of carbon tetrachloride (CCl4) in olive oil in the amount of 1 ml/kg during 10 days. After 20 days the presence of liver cirrhosis was confirmed by morphological image of liver in all laboratory animals. Starting from that day, for 10 days the inventive agent was administered to the laboratory animals by way of treatment, once every 24 hours, in varying amounts in order to refine the optimal treatment procedure.
The effectiveness of the inventive preparation was evaluated in comparison with Essentiale by several groups of indices: morphometric, biochemical and functional. First of all the clinical performance of intoxication was observed. The clinical performance in the group of rats that received CCl4 with no treatment was characterized by hypodynamia, dormancy, disheveled hair and untidy appearance of the animals. They gained weight less well than the other rats. In this group by day 15 of the study 80% of the animals were dead, in the group that received Essentiale—60%, in the group that received the inventive agent—40%.
Quantitative assessment of the preparation's effectiveness in treatment of toxic hepatitis was performed using a point rating system, taking into account the marker indices: the largest score for each index was assigned to the group with the more pronounced positive effect of the preparation.

[2] = system: toxic hepatitis caused by carbon tetrachloride (CCl4); test: Treatment of acute toxic hepatitis (CCl4) in rats by parenteral (intravenous) administration; assay type: in vivo; design: Total bilirubin, serum: unit not given here
Procedure: Treatment of toxic hepatitis by means of parenteral administration of the inventive substance. Acute toxic hepatitis was induced in rats by means of intragastric administration of 50% solution of carbon tetrachloride (CCl4) in olive oil in the amount of 1 ml/kg during 6 days. After 10 days the presence of toxic hepatitis was confirmed by morphological image of liver in all experimental animals. Starting from that day, for 10 days the preparations were administered to the experimental animals by way of treatment, once every 24 hours.
Essentiale was used as the preparation for comparison, which was administered in ampoules in the amount of 1 ml/100 g intravenously, slowly, into the caudal vein. The inventive substance was also administered intravenously in varying amounts in order to refine the treatment procedure. The effectiveness of treatment was evaluated on the basis of clinical performance, body weight dynamics, relative liver mass, the contents of bilirubin, transaminases, phosphatases, ceruloplasmin, total protein, blood serum lipids, the contents of glycogen, glutathione, SH-groups, stress tests (hexenal test, bromsulphalein test) and the histological pattern of liver.
Weight dynamics of the rats were determined by means of scales VLR-500. Liver of the animals was weighted using electronic scales 1602 MP by “Sartorius”. The contents of reduced glutathione in liver and the content of sulfhydryl groups in blood serum was evaluated by amperometric titration according to Rubinnaya N. S. (Stalnaya I.D., Garishvili T. G Modern methods in biochemistry. Moscow, Meditsina, 1977, pp. 66-68), the contents of glycogen—by the Samodi method (Stalnaya I.D., Garishvili T. G Modern methods in biochemistry. Moscow, Meditsina, 1977, pp. 66-68). The antitoxic function of liver was evaluated by the duration of hexenal sleep (70 mg per 1 kg of body weight), and the excretory function of liver was assessed by means of bromsulphalein test.
Blood for biochemical tests was obtained by means of paracentesis of the caudal vein of rats.
The activity of ALT, AST, ALP, ACP, LDH, thymol test, the contents of total protein and lipids, cholesterol, blood serum bilirubin were assessed by means of sets Bio-Lat-Test manufactured by a Czech company “Lachema”, the contents of ceruloplasmin were assessed according to Babenko (Laboratory research methods in clinical practice. Reference book, under the editorship of V. V. Menshikov. Moscow, Russia—Meditsina, 1987, p. 365). The animals were killed by decapitation, subjected to anatomicopathological autopsy and histological study. The experimental and reference rats were killed by means of decapitation. The material was fixed in 10-15% formaldehyde and embedded in paraffin. Paraffin slices were stained by means of hematoxylin and eosin. Fixed frozen slices were stained for fat by means of Sudan III.
Statistical processing of the experiments' results was done according to Student's T-distribution and F-distribution.
The effectiveness of preparations was assessed according to several groups of indices: morphometric, biochemical and functional. First of all the clinical performance of intoxication was observed. The clinical performance in the group of rats that received CCl4 with no treatment was characterized by hypodynamia, dormancy, disheveled hair and untidy appearance of the animals. They gained weight less well than the other rats. In this group, by day 15 of the study 80% of animals were dead.

[3] = point rating system, larger score = more pronounced positive effect, inventive substance 180 mg/kg, Essentiale 100 mg/kg
[4] = rats, CCl4 intoxication (cirrhosis), after 10 days oral treatment, inventive substance 90 mg/kg, Essentiale 100 mg/kg, M ± m
[5] = rats, CCl4 liver cirrhosis, oral treatment
[6] = CCl4 intoxication, after 10 days i.v. treatment, inventive substance 25 mg/kg, Essentiale 1 ml/100 g, M ± m

SMILES: O=Nc1c(O)n(-c2ccc(Br)cc2)c(=O)[nH]c1=O [The inventive substance, 1-(4-bromophenyl)-6-hydroxy-5-nitroso-1,2,3,4-tetrahydropyrimidine-2.4-dione]
- Quantitative assessment of effectiveness, ALP score [1, 3]: 11 points
- Quantitative assessment of effectiveness, ALT score [1, 3]: 7 points
- Quantitative assessment of effectiveness, AST score [1, 3]: 7 points
- Quantitative assessment of effectiveness, Hexenal sleep score [1, 3]: 10 points
- Quantitative assessment of effectiveness, Weight coefficient score [1, 3]: 10 points
- Body weight ([1]; rats, CCl4 intoxication (cirrhosis), after 10 days oral treatment once every 24 h, inventive substance 90 mg/kg, Essentiale 100 mg/kg, M ± m): 174 ± 7 g
- Alanine aminotransferase, serum [1, 4]: 0.85 ± 0.08 µmol/s/L
- Alkaline phosphatase, serum [1, 4]: 811 ± 26.3 nmol/s/L
- Aspartate aminotransferase, serum [1, 4]: 0.32 ± 0.04 µmol/s/L
- Hexenal sleep [1, 4]: 31.0 ± 2.0 min
- Relative liver mass [1, 4]: 27.87 ± 1.03
- degenerative changes of the liver (histology, in words) ([1]; rats, CCl4 liver cirrhosis, after oral treatment, majority of rats): no degenerative changes of the liver
- condition and function of liver (in words) [1, 5]: virtually completely and reliably normalized the condition and function of liver
- manifestations of intoxication (clinical performance, in words) [1, 5]: reduced or almost completely arrested the manifestations of intoxication
- animals dead by day 15 of the study ([1]; rats, CCl4 liver cirrhosis, oral treatment, untreated CCl4 group 80%): 40%
- Quantitative assessment of effectiveness, Total points ([1]; sum of marker index scores, inventive substance 180 mg/kg, Essentiale 100 mg/kg): 45 points
- Body weight ([2]; CCl4 intoxication, after 10 days i.v. treatment once every 24 h, inventive substance 25 mg/kg, Essentiale 1 ml/100 g, M ± m): 174 ± 8 g
- Hexenal sleep ([2]; CCl4 intoxication, after 10 days i.v. treatment, hexenal 70 mg/kg, inventive substance 25 mg/kg, Essentiale 1 ml/100 g, M ± m): 31.0 ± 2.0 min
- ACP [2, 6]: 0.75 ± 0.10 μkat/l
- Alanine aminotransferase, serum [2, 6]: 0.85 ± 0.08 µmol/s/L
- Alkaline phosphatase, serum [2, 6]: 811 ± 26.3 nmol/s/L
- Aspartate aminotransferase, serum [2, 6]: 0.32 ± 0.04 µmol/s/L
- Ceruloplasmin, serum [2, 6]: 477 ± 44 mg/L
- Cholesterol, serum [2, 6]: 1.70 ± 0.19 mmol/L
- Concentration of bromsulphalein at 10th minute after administrating the serum, extinction, [2, 6]: 13.5 ± 1.6 extinction
- Glycogen, liver [2, 6]: 2691 ± 191 mg %
- LDH [2, 6]: 5.49 ± 0.45 mmol/h/L
- Reduced glutathione, liver [2, 6]: 164 ± 10 mg %
- Relative liver mass [2, 6]: 27.87 ± 1.03 g/kg
- SH-groups, serum [2, 6]: 1554 ± 72 mg %
- Thymol test [2, 6]: 1.18 ± 0.17 turbidity units
- Total bilirubin, serum [2, 6]: 3.8 ± 0.5
- Total lipids, serum [2, 6]: 3.4 ± 0.09 g/L
- Total protein, serum [2, 6]: 69 ± 6 g/L
- microvesicular focal steatosis (liver histology, in words) ([2]; CCl4 toxic hepatitis, after i.v. treatment): absence of microvesicular focal steatosis
- percentage of deaths in the groups by the end of the treatment ([2]; CCl4 toxic hepatitis, day 20, 40% dead by start of treatment (day 10), inventive substance 25 mg/kg i.v., Essentiale 1 ml/100 g i.v.): 40%
- manifestations of intoxication (clinical performance, in words) ([2]; CCl4 toxic hepatitis, i.v. treatment): reduced or almost completely arrested the manifestations of intoxication

Reference: patent publication US8999959B2, “Drug for treating liver lesions caused by the action of chemical or biological agents” (priority 2010, dated 2015)
